Experimental data as given in patent US8778871B2 (Takeda Pharmaceutical Company Limited, priority 2004, dated 2014).
Non-standard residues stand in square brackets, D forms with d. Residues, ends and D or L forms follow the SMILES beside them. *: point of attachment. Propanoyl(3-(3-pyridyl)) = O=C(CCc1cccnc1)*; Arg(Me) = CNC(=N)NCCC[C@H](N)C(=O)O; d4Pal = N[C@H](Cc1ccncc1)C(=O)O; azaGly = NNC(=O)O

Columns and labels:
[1] = target: T1, hOT7T175 (Homo sapiens, UniProt Q969F8, L364H); assay type: cell-based; conditions: hOT7T175/CHO, FLIPR, evaluation for 40 seconds after initiation of the reaction
T1 construct: expressed in transfected cells
T1 sequence (Q969F8 whole entry L364H): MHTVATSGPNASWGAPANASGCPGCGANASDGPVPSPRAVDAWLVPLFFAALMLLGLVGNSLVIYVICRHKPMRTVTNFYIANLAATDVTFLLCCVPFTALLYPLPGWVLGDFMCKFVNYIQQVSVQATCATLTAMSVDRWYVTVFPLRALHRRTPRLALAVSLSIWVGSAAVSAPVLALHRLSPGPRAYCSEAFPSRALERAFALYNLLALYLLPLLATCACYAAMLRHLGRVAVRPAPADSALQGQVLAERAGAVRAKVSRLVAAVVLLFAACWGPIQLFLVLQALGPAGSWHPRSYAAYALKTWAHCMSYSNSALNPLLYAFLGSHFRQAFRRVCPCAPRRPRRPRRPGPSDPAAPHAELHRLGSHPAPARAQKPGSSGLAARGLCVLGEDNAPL
Method: The intracellular Ca ion level-increasing activity was measured using FLIPR as in TEST EXAMPLE 2.

[2] = tested on: human colonic carcinoma-derived cell line SW620; assay: Tumor growth inhibition activity in tumor-bearing mice; assay type: in vivo, mouse; conditions: for tumor growth inhibition (tumor size) compared to the vehicle group: s.c. osmotic pump; for effect of tumor growth inhibition relative to Metastin: in vivo
Method: The abscissa denotes the number of days after injection. The bar on the abscissa designates a dosing period. The ordinate denotes a tumor size (mm^3).
On the following day, human colonic carcinoma-derived cell line SW620 (ATCC) was dissolved in 20 mM phosphate buffered saline (pH 7.2)(PBS) containing 200 μL of 0.15M NaCl at a density of 2×10^6 cells. The resulting solution was subcutaneously injected into the left flank of the mice above. The day when the cells were injected was made Day 0. Tumor was measured with an electronic caliper every other or 2 other days during Days 4 to 13 from the cell administration, and tumor size was calculated by the equation: (shorter diameter)^2×longer diameter/2.

[3] = Induction of ovulation in immature rat using metastin derivatives; assay type: in vivo; conditions: for progesterone level compared with hCG administration / dose to be administered for induction of ovulation equivalent to hCG / number of oocytes in average per rat: eCG-primed immature female Wistar rats; for dose to be administered for induction of ovulation equivalent to hCG: s.c.; for blood progesterone level: relative to Group A (hCG)
Method: Equine chorionic gonadotropin (eCG, serotropin, Dainippon Pharmaceutical Co., Ltd.) was dissolved in saline (Otsuka Pharmaceutical Co., Ltd.) in a concentration of 100 IU/mL. Using a 1 ml tuberculin syringe and a 26-gauge needle (both by Terumo Co., Ltd.), eCG was subcutaneously injected into the dorsal area of female Wistar rats of 23 days old after birth (Charles River Japan, Inc.) in a dose of 10 IU/animal, during 9:00 to 10:00 AM. Following the eCG injection, the animal was grouped after 47 to 48 hours as shown below, to which groups, each drug was injected.
Group B (5 rats): Compound No. 305 was dissolved in saline at 33.3 nmol/mL and the solution was subcutaneously injected into the back in a dose of 6.7 nmol/animal.
Group C (5 rats): Compound No. 305 was dissolved in saline at […] and the solution was subcutaneously injected into the back in a dose of 2.0 nmol/animal.
Group D (5 rats): Compound No. 322 was dissolved in saline at 33.3 nmol/mL and the solution was subcutaneously injected into the back in a dose of 6.7 nmol/animal.
Group E (5 rats): Compound No. 322 was dissolved in saline at 10.0 nmol/mL and the solution was subcutaneously injected into the back in a dose of 2.0 nmol/animal.
Group F (6 rats): Saline was subcutaneously injected into the back in a dose of 200 μL/animal.
After administration of these drugs, the animal was sacrificed by decapitation after 24 to 25 hours to recover blood, bilateral oviducts and uterus. In collecting blood, 90 μl of 10 KIU/mL aprotinin solution (Trasylol, Bayer) containing 3 mg/ml EDTA had been previously filled in a tube for recovery to prevent blood clotting. After blood recovery, the blood was thoroughly blended and the mixture was centrifuged at 2,000 G for 25 minutes. After the supernatant was recovered, the product was used as a plasma sample.
The number of oocytes was counted by referring to the method described in Eur. J. Endocrinol., 138, 594-600 (1998).
Where retention of oocytes in the oviducal ampulla was confirmed by stereomicroscopic observation of the oviduct, the ampulla was punctured with a 27-gauge needle for syringe (Terumo) to retrieve the oocytes. After granulosa cells surrounding the oocytes were removed by trypsin treatment, the number of oocytes was counted. Where retention of oocytes in the oviducal ampulla was not confirmed by stereomicroscopic observation of the oviduct, a with 27-gauge needle with the polished tip for syringe was inserted into the tubal ostium and more than 400 μL of saline was flushed into the oviduct and uterine for rinsing. Then, the presence or absence of oocytes in the effluent was observed.
The blood estradiol level was measured by radioimmunoassay (DPC.Estradiol Kit, Iatron, Inc.).
The blood progesterone level was measured by radioimmunoassay (DPC.Progesterone, Iatron, Inc.).

[4] = target: T2, hOT7T175 (Homo sapiens, UniProt Q969F8); assay: Intracellular Ca ion level-increasing activity using FLIPR (180 seconds; specific activity to Metastin (1-54)); assay type: cell-based; conditions: hOT7T175/CHO, change in intracellular calcium ion level for 180 seconds, Tables 21-23
T2 construct: expressed in transfected cells
T2 sequence (Q969F8 whole entry L364H): as above

[5] = SW620 tumor-bearing BALB/cAnN-nu mice, 1 mM, 24 mol/day/mouse×14 days (24 nmol for Compound No. 305)
[6] = SW620 tumor-bearing mice, 0.1 mM, 1/10 dose of Metastin, 2.4 mol (nmol)/day/mouse×14 days
[7] = s.c. 2.0 nmol/animal (Groups C, E)
[8] = s.c. 6.7 nmol/animal (Groups B, D)

SMILES | Specific Act. (EC50/MS10 EC50) [1] | tumor growth inhibition (tumor size) compared to the vehicle group [2, 5] | effect of tumor growth inhibition relative to Metastin ([2]; SW620 tumor-bearing mice) | tumor growth inhibition (tumor size) compared to the vehicle group [2, 6] | progesterone level compared with hCG administration [3] | dose to be administered for induction of ovulation equivalent to hCG [3] | number of oocytes in average per rat [3, 7] | number of oocytes in average per rat [3, 8] | blood estradiol level [3, 7] | blood progesterone level [3, 7] | blood estradiol level [3, 8] | blood progesterone level [3, 8] | intracellular Ca ion level-increasing activity [specific activity to Metastin (1-54)] [4] | tumor growth inhibition (tumor size) compared with the Metastin group ([2]; SW620 tumor-bearing mice, same dose as Metastin, 24 mol/day/mouse×14 days) | rats ovulated ([3]; Group E, s.c. 2.0 mmol (so in the source) per animal)
CNC(=N)NCCC[C@H](NC(=O)[C@H](CC(C)C)NC(=O)NNC(=O)[C@H](Cc1ccccc1)NC(=O)[C@H](CO)NC(=O)[C@H](CC(N)=O)NC(=O)[C@@H](Cc1ccncc1)NC(=O)[C@H](N)Cc1ccc(O)cc1)C(=O)N[C@@H](Cc1ccccc1)C(N)=O [Compound No. 305, D-Tyr-D-Pya(4)-Asn-Ser-Phe-AzaGly-Leu-Arg(Me)-Phe-NH2] (H-[dY][d4Pal]NSF[azaGly]L[Arg(Me)]F-NH2) | 2.0 | significant effect of tumor growth inhibition from Days 5 to 9 and on Day 11 | 10 times | significant tumor growth inhibition activity from Days 5 to 11 | lower than in the hCG administration | at least 2.0 mmol/animal | 29.4 oocytes | 32.6 oocytes | no difference was found among Groups A, B, C and D | less than a half of the level in Group A | no difference was found among Groups A, B, C and D | less than a half of the level in Group A | 5 | – | –
CNC(=N)NCCC[C@H](NC(=O)[C@H](CC(C)C)NC(=O)NNC(=O)[C@H](Cc1ccccc1)NC(=O)[C@H](CO)NC(=O)[C@H](CC(N)=O)NC(=O)CCc1cccnc1)C(=O)N[C@@H](Cc1ccccc1)C(N)=O [Compound No. 322, 3-(3-Pyridyl)propionyl-Asn-Ser-Phe-AzaGly-Leu-Arg(Me)-Phe-NH2] ({Propanoyl(3-(3-pyridyl))}-NSF[azaGly]L[Arg(Me)]F-NH2) | 5.4 | significant tumor growth inhibition activity from Days 6 to 11 | 10 times | significant tumor growth inhibition activity in a 1/10 dose (2.4 mol/day/mouse×14 days) of Metastin from Days 6 to 8 | lower than in the hCG administration | at least 6.7 mmol/animal | 11.6 oocytes | 29.6 oocytes | tendency to show a higher level in rats with no ovulation induction | very low level | no difference was found among Groups A, B, C and D | less than a half of the level in Group A | 1 | on Day 11, showed a significant tumor growth inhibition activity even when compared with the Metastin group | 3 out of 5
